# Read-outs that look alike come from different tables or passages of the source.
# How the values were obtained:
# (E134Q)Cass2 = (E134Q)Cass2 (Vibrio cholerae, UniProt D0VX23, E134Q); conditions: pH 7.5; read-out: Ligand binding affinity KD, Cass2 E134Q
# Cass2 = Cass2 (Vibrio cholerae, UniProt D0VX23); conditions: tryptophan fluorescence quenching, 24°C, pH 7.5; read-out: Ligand binding affinity KD, Cass2 wt
# Method: Fluorescence assays were used to detect binding of compounds to Cass2 and related mutants. Concentrated ligand solutions in Buffer B were titrated into a 400 µl sample of protein (180 nM in Buffer B) and Trp fluorescence monitored.
# Fluorescence intensities were recorded at 22°C with a PerkinElmer LS55 fluorescence spectrophotometer using a 1 cm×0.2 cm quartz cell. […] Thus, fluorescence quenching was monitored by recording emission at 350 nm for all samples following excitation at 295 nm (slit widths 10 and 5 nm, respectively) with an integration time of 5 s. All readings were corrected for buffer background emission and sample dilution. Inner-filter effects were measured by titrating each compound into a 1.3 µM sample of tryptophan in Buffer B and the relative fluorescence quenching (ΔF) corrected as follows [64]:
# ΔF = (F 0−F C (F W0/F WC))/F 0 where F 0 = fluorescence intensity of protein sample, F C = fluorescence intensity of protein with added compound, F W0 = fluorescence intensity of free tryptophan solution, F WC = fluorescence of tryptophan solution with added compound.
# Standard deviation was calculated for the individual ΔF values from three independent experiments. […]
# BmrR [1] = conditions: equilibrium dialysis methods; read-out: Ligand binding affinity KD, BmrR wt; cited from earlier work
# BmrR [2] = conditions: isothermal titration calorimetry binding assays; read-out: Ligand binding affinity KD, BmrR wt; cited from earlier work
Molecule,Kd ((E134Q)Cass2),Kd (Cass2),Kd (BmrR [1]),Kd (BmrR [2])
"c1ccc([P+](c2ccccc2)(c2ccccc2)c2ccccc2)cc1 [tetraphenylphosphonium (TPP), tetraphenylphosphonium chloride]",200 ± 130 nM,200 ± 80 nM,100 µM,74 ± 20.5 µM
benzalkonium chloride,300 ± 60 nM,100 nM,–,–
